Columns and labels:
[1] = system: Haemonchus contortus L3; assay: microbe, parasite or virus in culture; assay type: cell-based; conditions: Haemonchus contortus, 96 h, read-out: HcL3 Minimal Effective Concentration (MEC)
[2] = system: D. immitis microfilariae; assay: Dirofilaria immitis, microfilariae (DiMF) in vitro motility assay; assay type: cell-based; conditions: Dirofilaria immitis, 72 h, read-out: DiMF minimally effective dose (MEC)

| Compound | minimal effective concentration [1] | minimal effective concentration [2] |
| --- | --- | --- |
| NC(=O)c1ccc2c3c(n(C(=O)NCc4ccnc(Cl)c4)c2c1)CCN(C/C=C/c1ccc(Cl)c(F)c1)C3 [Example 465, (E)-2-(3-(4-chloro-3-fluorophenyl)allyl)-N^5-((2-chloropyridin-4-yl)methyl)-1,2,3,4-tetrahydro-5H-pyrido[4,3-b]indole-5,7-dicarboxamide] | 3.3 µM | 10 µM |
| NC(=O)c1ccc2c3c(n(C(=O)NCc4ccnc(Cl)c4)c2c1)CCN(C/C=C/c1ccc(F)cc1)C3 [Example 466, (E)-N^5-((2-chloropyridin-4-yl)methyl)-2-(3-(4-fluorophenyl)allyl)-1,2,3,4-tetrahydro-5H-pyrido[4,3-b]indole-5,7-dicarboxamide] | > 100 µM | 3.3 µM |
| NC(=O)c1ccc2c(c1)c1c(n2C(=O)NCc2ccnc(Cl)c2)CCN(C/C=C/c2ccc(Cl)c(F)c2)C1 [Example 467, (E)-2-(3-(4-chloro-3-fluorophenyl)allyl)-N^5-((2-chloropyridin-4-yl)methyl)-1,2,3,4-tetrahydro-5H-pyrido[4,3-b]indole-5,8-dicarboxamide] | > 100 µM | 1 µM |
| CCOc1cc2c(cc1Br)c1c(n2C(=O)NCc2ccnc(Cl)c2)CCN(C/C=C/c2ccc(Cl)cc2)C1 [Example 468, (E)-8-bromo-2-(3-(4-chlorophenyl)allyl)-N-((2-chloropyridin-4-yl)methyl)-7-ethoxy-1,2,3,4-tetrahydro-5H-pyrido[4,3-b]indole-5-carboxamide] | 0.2 µM | 1.8 µM |
| O=C(NCc1ccnc(Cl)c1)n1c2c(c3cc(F)c(OC(F)(F)F)cc31)CN(C/C=C/c1ccc(Cl)cc1)CC2 [Example 469, (E)-2-(3-(4-chlorophenyl)allyl)-N-((2-chloropyridin-4-yl)methyl)-8-fluoro-7-(trifluoromethoxy)-1,2,3,4-tetrahydro-5H-pyrido[4,3-b]indole-5-carboxamide] | 1 µM | > 100 µM |
| O=C(NCc1ccnc(Cl)c1)n1c2c(c3cc(F)c(OC(F)(F)F)cc31)CN(C/C=C/c1ccc(F)cc1)CC2 [Example 471, (E)-N-((2-chloropyridin-4-yl)methyl)-8-fluoro-2-(3-(4-fluorophenyl)allyl)-7-(trifluoromethoxy)-1,2,3,4-tetrahydro-5H-pyrido[4,3-b]indole-5-carboxamide] | 0.3 µM | 10 µM |
| O=C(NCc1ccnc(F)c1)n1c2c(c3cc(F)c(OC(F)(F)F)cc31)CN(C/C=C/c1ccc(Cl)cc1)CC2 [Example 472, (E)-2-(3-(4-chlorophenyl)allyl)-8-fluoro-N-((2-fluoropyridin-4-yl)methyl)-7-(trifluoromethoxy)-1,2,3,4-tetrahydro-5H-pyrido[4,3-b]indole-5-carboxamide] | 1 µM | 10 µM |
| O=C(NCc1ccnc(Cl)c1)n1c2c(c3cc4c(cc31)COC4)CN(C/C=C/c1ccc(C(F)(F)F)cn1)CC2 [Example 474, (E)-N-((2-chloropyridin-4-yl)methyl)-8-(3-(5-(trifluoromethyl)pyridin-2-yl)allyl)-1,3,6,7,8,9-hexahydro-5H-furo[3,4-f]pyrido[4,3-b]indole-5-carboxamide] | 0.2 µM | 10 µM |
| N#Cc1ccc(/C=C/CN2CCc3c(c4cc5c(cc4n3C(=O)NCc3ccnc(Cl)c3)COC5)C2)cc1 [Example 479, (E)-N-((2-chloropyridin-4-yl)methyl)-8-(3-(4-cyanophenyl)allyl)-1,3,6,7,8,9-hexahydro-5H-furo[3,4-f]pyrido[4,3-b]indole-5-carboxamide] | 1 µM | > 100 µM |
| O=C(NCc1ccnc(Cl)c1)n1c2c(c3cc4c(cc31)COC4)CN(C/C=C/c1ccc(Cl)cc1)CC2 [Example 480, (E)-8-(3-(4-chlorophenyl)allyl)-N-((2-chloropyridin-4-yl)methyl)-1,3,6,7,8,9-hexahydro-5H-furo[3,4-f]pyrido[4,3-b]indole-5-carboxamide] | 0.3 µM | 3.3 µM |
| O=C(NCc1ccnc(Cl)c1)n1c2c(c3cc4c(cc31)COC4)CN(C/C=C/c1ccc(C(F)(F)F)cc1)CC2 [Example 482, (E)-N-((2-chloropyridin-4-yl)methyl)-8-(3-(4-(trifluoromethyl)phenyl)allyl)-1,3,6,7,8,9-hexahydro-5H-furo[3,4-f]pyrido[4,3-b]indole-5-carboxamide] | 1.8 µM | 3.3 µM |
| O=C(NCc1ccnc(Cl)c1)n1c2c(c3c4c(ccc31)COC4)CN(C/C=C/c1ccc(Cl)cc1)CC2 [Example 490, (E)-9-(3-(4-chlorophenyl)allyl)-N-((2-chloropyridin-4-yl)methyl)-1,3,7,8,9,10-hexahydro-6H-furo[3,4-e]pyrido[4,3-b]indole-6-carboxamide] | 0.2 µM | 10 µM |
| CSc1cc2c3c(n(C(=O)NCc4ccnc(Cl)c4)c2cc1C#N)CCN(C/C=C/c1ccc(Cl)cc1)C3 [Example 491, (E)-2-(3-(4-chlorophenyl)allyl)-N-((2-chloropyridin-4-yl)methyl)-7-cyano-8-(methylthio)-1,2,3,4-tetrahydro-5H-pyrido[4,3-b]indole-5-carboxamide] | 1 µM | 18.2 µM |
| O=C(NCc1ccnc(Cl)c1)n1c2c(c3cc(Br)c(OC(F)(F)F)cc31)CN(C/C=C/c1ccc(Cl)cc1)CC2 [Example 492, (E)-8-bromo-2-(3-(4-chlorophenyl)allyl)-N-((2-chloropyridin-4-yl)methyl)-7-(trifluoromethoxy)-1,2,3,4-tetrahydro-5H-pyrido[4,3-b]indole-5-carboxamide] | 1.8 µM | 0.5 µM |
| COc1cc2c3c(n(C(=O)NCc4ccnc(Cl)c4)c2cc1C#N)CCN(C/C=C/c1ccc(Cl)cc1)C3 [Example 493, (E)-2-(3-(4-chlorophenyl)allyl)-N-((2-chloropyridin-4-yl)methyl)-7-cyano-8-methoxy-1,2,3,4-tetrahydro-5H-pyrido[4,3-b]indole-5-carboxamide] | 1 µM | 5.7 µM |
| Cc1cc2c(cc1OC(F)(F)F)c1c(n2C(=O)NCc2ccnc(Cl)c2)CCN(C/C=C/c2ccc(Cl)cc2)C1 [Example 494, (E)-2-(3-(4-chlorophenyl)allyl)-N-((2-chloropyridin-4-yl)methyl)-7-methyl-8-(trifluoromethoxy)-1,2,3,4-tetrahydro-5H-pyrido[4,3-b]indole-5-carboxamide] | 1 µM | > 100 µM |
| O=C(NCc1ccnc(Cl)c1)n1c2c(c3cc(OC(F)(F)F)c(F)cc31)CN(C/C=C/c1ccc(Cl)cc1)CC2 [Example 495, (E)-2-(3-(4-chlorophenyl)allyl)-N-((2-chloropyridin-4-yl)methyl)-7-fluoro-8-(trifluoromethoxy)-1,2,3,4-tetrahydro-5H-pyrido[4,3-b]indole-5-carboxamide] | 1 µM | 10 µM |
| O=C(NCc1ccnc(Cl)c1)n1c2c(c3cc(OC(F)(F)F)c(Cl)cc31)CN(C/C=C/c1ccc(Cl)cc1)CC2 [Example 496, (E)-7-chloro-2-(3-(4-chlorophenyl)allyl)-N-((2-chloropyridin-4-yl)methyl)-8-(trifluoromethoxy)-1,2,3,4-tetrahydro-5H-pyrido[4,3-b]indole-5-carboxamide] | 1 µM | 5.7 µM |
| O=C(NCc1ccnc(Cl)c1)n1c2c(c3cc(OC(F)(F)F)c(Br)cc31)CN(C/C=C/c1ccc(Cl)cc1)CC2 [Example 497, (E)-7-bromo-2-(3-(4-chlorophenyl)allyl)-N-((2-chloropyridin-4-yl)methyl)-8-(trifluoromethoxy)-1,2,3,4-tetrahydro-5H-pyrido[4,3-b]indole-5-carboxamide] | 1 µM | 5.7 µM |
| O=C(NCc1ccnc(Cl)c1)n1c2c(c3cc(Br)c(C(F)(F)F)cc31)CN(C/C=C/c1ccc(Cl)cc1)CC2 [Example 498, (E)-8-bromo-2-(3-(4-chlorophenyl)allyl)-N-((2-chloropyridin-4-yl)methyl)-7-(trifluoromethyl)-1,2,3,4-tetrahydro-5H-pyrido[4,3-b]indole-5-carboxamide] | 1.8 µM | 5.7 µM |
| O=C(NCc1ccnc(Cl)c1)n1c2c(c3cc(Cl)c(OC(F)(F)F)cc31)CN(C/C=C/c1ccc(Cl)cc1)CC2 [Example 499, (E)-8-chloro-2-(3-(4-chlorophenyl)allyl)-N-((2-chloropyridin-4-yl)methyl)-7-(trifluoromethoxy)-1,2,3,4-tetrahydro-5H-pyrido[4,3-b]indole-5-carboxamide] | 1.8 µM | > 100 µM |
| O=C(NCc1ccnc(Cl)c1)n1c2c(c3cc(-n4ccccc4=O)ccc31)CN(C/C=C/c1ccc(Cl)cc1)CC2 [Example 500, (E)-2-(3-(4-chlorophenyl)allyl)-N-((2-chloropyridin-4-yl)methyl)-8-(2-oxopyridin-1 (2H)-yl)-1,2,3,4-tetrahydro-5H-pyrido[4,3-b]indole-5-carboxamide] | > 100 µM | 5.7 µM |
| O=C(NCc1ccnc(F)c1)n1c2c(c3cc(C4CC4)ccc31)CN(C/C=C/c1ccc(Cl)cc1)CC2 [Example 501, (E)-2-(3-(4-chlorophenyl)allyl)-8-cyclopropyl-N-((2-fluoropyridin-4-yl)methyl)-1,2,3,4-tetrahydro-5H-pyrido[4,3-b]indole-5-carboxamide] | 3.3 µM | 18.2 µM |
| N#Cc1cc2c(cc1OC(F)(F)F)c1c(n2C(=O)NCc2ccnc(Cl)c2)CCN(C/C=C/c2ccc(Cl)cc2)C1 [Example 502, (E)-2-(3-(4-chlorophenyl)allyl)-N-((2-chloropyridin-4-yl)methyl)-7-cyano-8-(trifluoromethoxy)-1,2,3,4-tetrahydro-5H-pyrido[4,3-b]indole-5-carboxamide] | 18.2 µM | > 100 µM |
